# Source: patent US6605634B2 (Amgen, Inc., priority 1996, dated 2003)
# Test system: production of tumor necrosis factor (TNF) by monocytes activated with bacterial lipopolysaccharide (LPS)
# Assay: Lipopolysaccharide-activated Monocyte TNF Production Assay
# Type: cell-based
# Details: Homo sapiens, TNF in culture supernatants by ELISA, read-out: IC50 (concentration of test compounds causing a 50% reduction in TNF production)
# Protocol: Lipopolysaccharide-activated Monocyte TNF Production Assay
# Test compounds were evaluated in vitro for the ability to inhibit the production of tumor necrosis factor (TNF) by monocytes activated with bacterial lipopolysaccharide (LPS). Fresh residual source leukocytes (a byproduct of plateletpheresis) were obtained from the local blood bank and peripheral blood mononuclear cells (PBMCs) were isolated by density gradient centrifugation on Ficol-Paque Plus (Pharmacia). PBMCs were suspended at 2×10^6/ml in DMEM supplemented to contain 2% FCS (10 mM), 0.3 mg/ml glutamate, 100 U/ml penicillin G and […] streptomycin sulfate (complete media). Cells were plated into Falcon flatbottom 96 well culture plates (200 μl/well) and cultured overnight at 37° C. and 6% CO2. Nonadherent cells were removed by washing with 200 μl/well of fresh medium. Wells containing adherent cells (˜70% monocytes) were replenished with 100 μl of fresh medium.
# Preparation of Test Compound Stock Solutions
# Test compounds were dissolved in […]. Compound stock solutions were prepared to an initial concentration of […]. Stocks were diluted initially to 20-200 μM in complete media. Nine two-fold serial dilutions of each compound were then prepared in complete medium.
# Treatment of Cells with Test Compounds and Activation of TNF Production with Lipopolysaccharide
# One hundred microliters of each test compound dilution were added to microtiter wells containing adherent monocytes and 100 μl complete medium. Monocytes were cultured with test compounds for 60 min at which time 25 μl of complete medium containing 30 ng/ml lipopolysaccharide from E. coli K532 were added to each well. Cells were cultured an additional 4 hrs. Culture supernatants were then removed and TNF present in the supernatants was quantified using an ELISA.
# Flat bottom 96 well Coming High Binding ELISA plates were coated overnight (4° C.) with 150 μL/well of 3 μg/ml murine anti-human TNFa MAb (R&D Systems #MAB210). Wells were then blocked 1 h at room temperature with 200 μL/well of CaCl2-free ELISA buffer supplemented to contain 20 mg/ml BSA (standard ELISA buffer: […], 150 mM NaCl, 2 mM CaCl2, 0.15 mM thimerosal, pH 7.4). Plates were washed and replenished with 100 μl of test supernatants (diluted 1:3) or standards. Standards consisted of eleven 1.5-fold serial dilutions from a stock of 1 ng/ml recombinant human TNF (R&D Systems). Plates were incubated at room temperature for 1 h on orbital shaker (300 rpm), washed and replenished with 100 μl/well of 0.5 jig/ml goat anti-human TNFa (R&D systems #AB-210-NA) biotinylated at a 4:1 ratio. Plates were incubate for 40 min, washed and replenished with 100 μl/well of alkaline phosphatase-conjugated streptavidin (Jackson ImmunoResearch #016-050-084) at 0.02 μg/ml. Plates were incubated 30 min, washed and replenished with 200 μl well of 1 mg/ml of p-nitrophenyl phosphate. After 30 min, plates were read at 405 nm on a Vmax plate reader.
# Standard curve data were fit to a second order polynomial and unknown TNF-a concentrations determined from their OD by solving this equation for concentration. TNF concentrations were then plotted Vs test compound concentration using a second order polynomial. This equation was then used to calculate the concentration of test compounds causing a 50% reduction in TNF production.
row,SMILES,IC50 [µM]
1,"NC(Cc1ccccc1)C(=O)Nc1ccc2c(-c3ccncc3)c(-c3ccc(F)cc3)[nH]c2n1 (racemic) [Compound 87, 6-(3′-phenyl-1′-oxo-2′-D,L-aminopropylamino)-3-(4-pyridyl)-2-(4-fluorophenyl)-7-aza-indole]",< 20
2,"CC(CNc1ccc2c(-c3ccncc3)c(-c3ccc(F)cc3)[nH]c2n1)c1ccccc1 (racemic) [Compound 147, 6-(2′(R,S)-phenylpropylamino)-3-(4-pyridyl)-2-(4-fluorophenyl)-7-aza-indole]",< 20
3,"CCCCC(CC)CNc1ccc2c(-c3ccncc3)c(-c3ccc(F)cc3)[nH]c2n1 (racemic) [Compound 148, 6-(2′(R,S)-ethylhexylamino)-3-(4-pyridyl)-2-(4-fluorophenyl)-7-aza-indole]",< 20
4,"Fc1ccc(-c2[nH]c3ccccc3c2-c2ccncc2)cc1 [Compound 3, 3-(4-pyridyl)-2-(4-fluorophenyl)indole]",< 20
5,"Nc1ccc2c(-c3ccncc3)c(-c3ccc(F)cc3)[nH]c2n1 [Compound 17, 6-Amino-3-(4-pyridyl)-2-(4-fluorophenyl)-7-aza-indole]",< 1
6,"Nc1ccc2c(-c3ccc(F)cc3)c(-c3ccncc3)[nH]c2n1 [Compound 18, 6-Amino-3-(4-fluorophenyl)-2-(4-pyridyl)-7-aza-indole]",< 20
7,"CC(C)(C)OC(=O)NCCCC(=O)Nc1ccc2c(-c3ccncc3)c(-c3ccc(F)cc3)[nH]c2n1 [Compound 21, 6-(4′-t-butoxycarbonylamino-1′-oxo-butylamino)-3-(4-pyridyl)-2-(4-fluorophenyl)-7-aza-indole]",< 20
8,"NCCCC(=O)Nc1ccc2c(-c3ccncc3)c(-c3ccc(F)cc3)[nH]c2n1 [Compound 22, 6-(4′-amino-1′-oxo-butylamino)-3-(4-pyridyl)-2-(4-fluorophenyl)-7-aza-indole]",< 20
9,"Nc1nc2[nH]c(-c3ccc(F)cc3)c(-c3ccncc3)c2cc1Br [Compound 27, 6-Amino-5-bromo-3-(4-pyridyl)-2-(4-fluorophenyl)-7-aza-indole]",< 20
10,"Nc1nc2[nH]c(-c3ccc(F)cc3)c(-c3ccncc3)c2cc1F [Compound 28, 6-Amino-5-fluoro-3-(4-pyridyl)-2-(4-fluorophenyl)-7-aza-indole]",< 20
11,"CC(C)(C)OC(=O)NCC(=O)Nc1ccc2c(-c3ccncc3)c(-c3ccc(F)cc3)[nH]c2n1 [Compound 29, 6-(2′-t-butoxycarbonylamino-1′-oxo-ethylamino)-3-(4-pyridyl)-2-(4-fluorophenyl)-7-aza-indole]",< 20
12,"NC(=O)NCCC[C@H](N)C(=O)Nc1ccc2c(-c3ccncc3)c(-c3ccc(F)cc3)[nH]c2n1 [Compound 65, 6-(5′-ureido-1′-oxo-2′-aminopentylamino)-3-(4-pyridyl)-2-(4-fluorophenyl)-7-aza-indole]",< 20
13,"CC(C)(C)OC(=O)NCCCC[C@H](NC(=O)OC(C)(C)C)C(=O)Nc1ccc2c(-c3ccncc3)c(-c3ccc(F)cc3)[nH]c2n1 [Compound 66, 6-(6′-t-butoxycarbonylamino-1′-oxo-2′-t-butoxycarbonylaminohexylamino)-3-(4-pyridyl)-2-(4-fluorophenyl)-7-aza-indole]",< 20
14,"NCCCC[C@H](N)C(=O)Nc1ccc2c(-c3ccncc3)c(-c3ccc(F)cc3)[nH]c2n1 [Compound 67, 6-(6′-amino-1′-oxo-2′-aminohexylamino)-3-(4-pyridyl)-2-(4-fluorophenyl)-7-aza-indole]",< 20
15,"CC(C)(C)OC(=O)NCCC[C@H](NC(=O)OC(C)(C)C)C(=O)Nc1ccc2c(-c3ccncc3)c(-c3ccc(F)cc3)[nH]c2n1 [Compound 68, 6-(5′-t-butoxycarbonylamino-1′-oxo-2′-t-butoxycarbonylaminopentylamino)-3-(4-pyridyl)-2-(4-fluorophenyl)-7-aza-indole]",< 20
16,"NCCC[C@H](N)C(=O)Nc1ccc2c(-c3ccncc3)c(-c3ccc(F)cc3)[nH]c2n1 [Compound 69, 6-(5′-amino-1′-oxo-2′-aminopentylamino)-3-(4-pyridyl)-2-(4-fluorophenyl)-7-aza-indole]",< 20

row,SMILES,IC50 [µM]
1,"N[C@@H](Cc1ccc(I)cc1)C(=O)Nc1ccc2c(-c3ccncc3)c(-c3ccc(F)cc3)[nH]c2n1 [Compound 71, 6-(3′-(4-iodophenyl)-1′-oxo-2′-aminopropylamino)-3-(4-pyridyl)-2-(4-fluorophenyl)-7-aza-indole]",< 1
2,"CC(C)[C@H](N)C(=O)Nc1ccc2c(-c3ccncc3)c(-c3ccc(F)cc3)[nH]c2n1 [Compound 73, 6-(3′-Methyl-1′-oxo-2′-aminobutylamino)-3-(4-pyridyl)-2-(4-fluorophenyl)-7-aza-indole]",< 20
3,"CC(C)(C)C[C@H](N)C(=O)Nc1ccc2c(-c3ccncc3)c(-c3ccc(F)cc3)[nH]c2n1 [Compound 75, 6-(4′,4′-Dimethyl-1′-oxo-2′-aminopentylamino)-3-(4-pyridyl)-2-(4-fluorophenyl)-7-aza-indole]",< 20
4,"NCCCCC(=O)Nc1ccc2c(-c3ccncc3)c(-c3ccc(F)cc3)[nH]c2n1 [Compound 77, 6-(5′-amino-1′-oxo-pentylamino)-3-(4-pyridyl)-2-(4-fluorophenyl)-7-aza-indole]",< 20
5,"NCCCCCC(=O)Nc1ccc2c(-c3ccncc3)c(-c3ccc(F)cc3)[nH]c2n1 [Compound 79, 6-(6′-amino-1′-oxo-hexylamino)-3-(4-pyridyl)-2-(4-fluorophenyl)-7-aza-indole]",< 20
6,"N[C@@H](CC1CCCCC1)C(=O)Nc1ccc2c(-c3ccncc3)c(-c3ccc(F)cc3)[nH]c2n1 [Compound 81, 6-(3′-cyclohexyl-1′-oxo-2′-aminopropylamino)-3-(4-pyridyl)-2-(4-fluorophenyl)-7-aza-indole]",< 20
7,"N[C@@H](CCC(=O)O)C(=O)Nc1ccc2c(-c3ccncc3)c(-c3ccc(F)cc3)[nH]c2n1 [Compound 83, 6-(4′-carboxy-1′-oxo-2′-aminobutylamino)-3-(4-pyridyl)-2-(4-fluorophenyl)-7-aza-indole]",< 20
8,"CC(O)[C@H](N)C(=O)Nc1ccc2c(-c3ccncc3)c(-c3ccc(F)cc3)[nH]c2n1 (stereo partly shown) [Compound 85, 6-(3′-hydroxy-1′-oxo-2′-aminobutylamino)-3-(4-pyridyl)-2-(4-fluorophenyl)-7-aza-indole]",< 20
9,"N[C@@H](Cc1ccc(O)cc1)C(=O)Nc1ccc2c(-c3ccncc3)c(-c3ccc(F)cc3)[nH]c2n1 [Compound 89, 6-(3′-(4-hydroxyphenyl)-1′-oxo-2′-aminopropylamino)-3-(4-pyridyl)-2-(4-fluorophenyl)-7-aza-indole]",< 1
10,"NCCC(=O)Nc1ccc2c(-c3ccncc3)c(-c3ccc(F)cc3)[nH]c2n1 [Compound 91, 6-(3′-amino-1′-oxo-propylamino)-3-(4-pyridyl)-2-(4-fluorophenyl)-7-aza-indole]",< 20
11,"NCC(=O)Nc1ccc2c(-c3ccncc3)c(-c3ccc(F)cc3)[nH]c2n1 [Compound 92, 6-(2′-amino-1′-oxo-ethylamino)-3-(4-pyridyl)-2-(4-fluorophenyl)-7-aza-indole]",< 1
12,"CS(=O)(=O)Nc1ccc2c(-c3ccncc3)c(-c3ccc(F)cc3)[nH]c2n1 [Compound 93, 6-(methylsulfonylamino)-3-(4-pyridyl)-2-(4-fluorophenyl)-7-aza-indole]",< 20
13,"CC(=O)Nc1ccc2c(-c3ccncc3)c(-c3ccc(F)cc3)[nH]c2n1 [Compound 94, 6-(1′-oxo-ethylamino)-3-(4-pyridyl)-2-(4-fluorophenyl)-7-aza-indole]",< 20
14,"O=S(=O)(Nc1ccc2c(-c3ccncc3)c(-c3ccc(F)cc3)[nH]c2n1)c1ccc(Cl)s1 [Compound 95, 6-(2′-(5-chlorothienyl)sulfonylamino)-3-(4-pyridyl)-2-(4-fluorophenyl)-7-aza-indole]",< 20
15,"O=C(CCN1C(=O)c2ccccc2C1=O)Nc1ccc2c(-c3ccncc3)c(-c3ccc(F)cc3)[nH]c2n1 [Compound 98, 6-(3′-N-phthaloyl-1′-oxo-propylamino)-3-(4-pyridyl)-2-(4-fluorophenyl)-7-aza-indole]",< 20
